One block for each compound: values may come before it. Numbered stars: 1 amine (or outer) side, 2 acyl side, 3 side chain; on linkers, the order of the positions; unused ones are H or OH. Bridge positions count the residues as written; N and C are the ends. Square brackets hold non-standard residues; d marks the D form. Peptide text beside a SMILES is read from it. * marks the point of attachment. X2 = O=C([C@@H](Cc1ccccc1)N(CC(CO)(CO)CO)[*:1])[*:2]; 2Nal = N[C@@H](Cc1ccc2ccccc2c1)C(=O)O; X3 = O=C(CN(C(CO)(CO)CO)[*:1])[*:2]; X4 = O=C(CN1CCN(CCO)CC1)*
Assays:
somatostatin receptor = biological target: T1, somatostatin receptor (Rattus norvegicus, UniProt P30680); assay: Somatostatin binding assay: in vitro inhibition of binding of [125I-Tyr11]SRIF-14 to rat AR42J pancreas membranes; conditions: inhibition of [125I-Tyr11]SRIF-14 binding, read-out: IC50, in vitro binding affinity
T1 construct: SRIF-14 to rat AR42J pancreas membranes; endogenous in cells; host or cells: rat AR42J pancreatic cells (membrane preparation)

[1] = test system: AR42J rat pancreas tumor cells; assay: Antiproliferative assay on AR42J cells; type: cell-based; conditions: Concentration 100 nM, AR42J Rat Pancreas Tumor Cells after 8 days
Procedure: The purified somatostatin analogs described above were also tested for activity against rapidly proliferating cells.
^1 Concentration 100 nM, AR42J Rat Pancreas Tumor Cells after 8 days.

[2] = test system: stimulated growth hormone release; assay: Growth Hormone (GH) Inhibition Assay in rats (D-Ala2-GRF stimulated GH); type: in vivo, male Sprague Dawley rats; conditions: s.c.; for Inhibition of stimulated growth hormone release (percentile control): 25 μg/kg
Procedure: Groups of five male Sprague Dawley rats (each having a weight between 250-300 g) were injected s.c. with a somatostatin derivative or saline. Thirty minutes prior to the selected post-drug time periods shown in table II (2 hours, 4 hours, 6 hours, 8 hours), rats were anesthetized with Nembutal i.p. (50 mg/kg). Fifteen minutes following anesthesia, an aliquot of blood was withdrawn by cardiac puncture over heparin to measure basal GH. Additionally, a s.c. injection of D-Ala^2 -GRF (10 μg/kg) was given. Fifteen minutes later, blood was withdrawn to quantitate the stimulated GH, which was measured in plasma using a radioimmunoassay supplied by NIADDKD. The percentage of GH inhibition was calculated from differences obtained between basal and stimulated GH values.
The efficacy of D-Phe-c[Cys-Tyr-D-Trp-Lys-Thr-Cys]-Nal-NH2 (SEQ ID NO. 113) (BIM-23060) in inhibiting growth hormone in rats is compared with other somatostatin derivatives (BIM-23167, BIM-23179, and BIM-23181) of the invention.
Additional experiments were conducted on D-Phe-c[Cys-Tyr-D-Trp-Lys-Abu-Cys]-Thr-NH2, (SEQ ID NO. 112) a somatostatin analog, and BIM-23190, BIM-23195 and BIM-23197, to determine the ED50 (i.e., the concentration of each compound required to inhibit fifty percent of growth hormone release after a specified time) of the respective compound. Experiments were conducted at a dose range of between 25 μg/kg and 0.25 μg/kg.

T1 sequence (P30680 whole entry): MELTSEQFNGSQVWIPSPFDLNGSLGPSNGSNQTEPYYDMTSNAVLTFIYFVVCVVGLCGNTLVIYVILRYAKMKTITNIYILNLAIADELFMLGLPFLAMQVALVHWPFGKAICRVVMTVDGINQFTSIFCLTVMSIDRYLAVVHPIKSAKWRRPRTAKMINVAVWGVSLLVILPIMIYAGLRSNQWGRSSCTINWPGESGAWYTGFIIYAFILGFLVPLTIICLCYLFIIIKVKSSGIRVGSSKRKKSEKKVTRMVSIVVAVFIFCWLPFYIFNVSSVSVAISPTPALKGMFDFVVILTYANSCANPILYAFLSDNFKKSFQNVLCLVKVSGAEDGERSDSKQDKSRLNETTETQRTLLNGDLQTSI

Compound: CC[C@@H]1NC(=O)[C@H](CCCCN)NC(=O)[C@@H](Cc2c[nH]c3ccccc23)NC(=O)[C@H](Cc2ccc(O)cc2)NC(=O)[C@@H](NC(=O)[C@@H](Cc2ccccc2)NC(=O)COC2=C(OCC(O)CO)C(=O)O[C@@H]2[C@@H](O)CO)CSSC[C@@H](C(=O)N[C@H](C(N)=O)[C@@H](C)O)NC1=O (stereo partly shown) [BIM-23183]
Cell growth (percent of control) [1]: 69.1% of control

Compound: C[C@H](N)C(=O)NCC(=O)N[C@H]1CSSC[C@@H](C(=O)O)NC(=O)[C@H](CO)NC(=O)[C@H]([C@@H](C)O)NC(=O)[C@H](Cc2ccccc2)NC(=O)[C@H]([C@@H](C)O)NC(=O)[C@H](CCCCN)NC(=O)[C@H](Cc2c[nH]c3ccccc23)NC(=O)[C@H](Cc2ccccc2)NC(=O)[C@H](Cc2ccccc2)NC(=O)[C@H](CC(N)=O)NC(=O)[C@H](CCCCN)NC1=O [SRIF-14, reference compound]
Cell growth (percent of control) [1]: 91.3% of control

Compound: CC[C@@H]1NC(=O)[C@H](CCCCN)NC(=O)[C@@H](Cc2c[nH]c3ccccc23)NC(=O)[C@H](Cc2ccc(O)cc2)NC(=O)[C@@H](NC(=O)[C@@H](Cc2ccccc2)NC(=O)CN2CCN(CCOCCO)CC2)CSSC[C@@H](C(=O)N[C@H](C(N)=O)[C@@H](C)O)NC1=O [BIM-23202]
IC50 (somatostatin receptor): 0.18 nM

Compound: CC[C@@H]1NC(=O)[C@H](CCCCN)NC(=O)[C@@H](Cc2c[nH]c3ccccc23)NC(=O)[C@H](Cc2ccc(O)cc2)NC(=O)[C@@H](NC(=O)[C@H](N)Cc2ccccc2)CSSC[C@@H](C(=O)N[C@H](C(N)=O)[C@@H](C)O)NC1=O [BIM-23023, D-Phe-c[Cys-Tyr-D-Trp-Lys-Abu-Cys]-Thr-NH2, reference compound]
ED50, inhibition of stimulated growth hormone release ([2]; 2 Hours): 0.48 µg/kg
ED50, inhibition of stimulated growth hormone release ([2]; 4 Hours): 1.11 µg/kg
ED50, inhibition of stimulated growth hormone release ([2]; 6 Hours): 2.26 µg/kg
ED50, inhibition of stimulated growth hormone release ([2]; 8 Hours): 4.32 µg/kg

Compound: CC(C)[C@@H]1NC(=O)[C@H](CCCCN)NC(=O)[C@@H](Cc2c[nH]c3ccccc23)NC(=O)[C@H](Cc2ccc(O)cc2)NC(=O)[C@@H](NC(=O)[C@@H](Cc2ccc3ccccc3c2)NC(=O)COC2=C(O)C(=O)O[C@@H]2[C@@H](O)CO)CSSC[C@@H](C(=O)N[C@H](C(N)=O)[C@@H](C)O)NC1=O [BIM-23135]
Cell growth (percent of control) [1]: 62.9% of control

Compound: CC[C@@H]1NC(=O)[C@H](CCCCN)NC(=O)[C@@H](Cc2c[nH]c3ccccc23)NC(=O)[C@H](Cc2ccc(O)cc2)NC(=O)[C@@H](NC(=O)[C@@H](Cc2ccccc2)NS(=O)(=O)CCN2CCN(CCO)CC2)CSSC[C@@H](C(=O)N[C@H](C(N)=O)[C@@H](C)O)NC1=O [BIM-23197]
IC50 (somatostatin receptor): 0.29 nM

Compound: D-Phe-c[Cys-Tyr-D-Trp-Lys-Thr-Cys]-Nal-NH2 [BIM-23060, reference compound]
Inhibition of stimulated growth hormone release (percentile control) ([2]; 2 Hours): 86.39 percentile control
Inhibition of stimulated growth hormone release (percentile control) ([2]; 4 Hours): 64.96 percentile control
Inhibition of stimulated growth hormone release (percentile control) ([2]; 6 Hours): 47.62 percentile control
Inhibition of stimulated growth hormone release (percentile control) ([2]; 8 Hours): 38.15 percentile control

Compound: CC[C@@H]1NC(=O)[C@H](CCCCN)NC(=O)[C@@H](Cc2c[nH]c3ccccc23)NC(=O)[C@H](Cc2ccc(O)cc2)NC(=O)[C@@H](NC(=O)[C@@H](Cc2ccccc2)NC(=O)CN2CCN(CCO)CC2)CSSC[C@@H](C(=O)N[C@H](C(N)=O)[C@@H](C)O)NC1=O [BIM-23190]
IC50 (somatostatin receptor): 0.2 nM

Compound: CSCC[C@H](NC(=O)[C@H](C)NC(=O)[C@@H]1CCCN1C(=O)[C@H](CC(N)=O)NC(=O)[C@H](CO)NC(=O)[C@H](CC(N)=O)NC(=O)[C@H](C)NC(=O)[C@@H](N)CO)C(=O)N[C@@H](C)C(=O)N1CCC[C@H]1C(=O)N[C@@H](CCCNC(=N)N)C(=O)N[C@@H](CCC(=O)O)C(=O)N[C@@H](CCCNC(=N)N)C(=O)N[C@@H](CCCCN)C(=O)N[C@@H](C)C(=O)NCC(=O)N[C@H]1CSSC[C@@H](C(=O)O)NC(=O)[C@H](CO)NC(=O)[C@H]([C@@H](C)O)NC(=O)[C@H](Cc2ccccc2)NC(=O)[C@H]([C@@H](C)O)NC(=O)[C@H](CCCCN)NC(=O)[C@H](Cc2c[nH]c3ccccc23)NC(=O)[C@H](Cc2ccccc2)NC(=O)[C@H](Cc2ccccc2)NC(=O)[C@H](CC(N)=O)NC(=O)[C@H](CCCCN)NC1=O [SRIF-28, reference compound]
Cell growth (percent of control) [1]: 98.0% of control

Compound: CC(=O)OCC(COC(C)=O)(COC(C)=O)NC(=O)CCC(=O)N[C@H](Cc1ccc2ccccc2c1)C(=O)N[C@H]1CSSC[C@@H](C(=O)N[C@H](C(N)=O)[C@@H](C)O)NC(=O)[C@H](C(C)C)NC(=O)[C@H](CCCCN)NC(=O)[C@@H](Cc2c[nH]c3ccccc23)NC(=O)[C@H](Cc2ccc(O)cc2)NC1=O [BIM-23107, (AcO-CH2)3 -C-NH-CO-(CH2)2 -CO-D-Nal-c[Cys-Tyr-D-Trp-Lys-Val-Cys]-Thr-NH2]
Cell growth (percent of control) [1]: 67.5% of control

More lines, main results first:

IC50 (somatostatin receptor): 0.12 nM
Compound: CC[C@@H]1NC(=O)[C@H](CCCCN)NC(=O)[C@@H](Cc2c[nH]c3ccccc23)NC(=O)[C@H](Cc2ccc(O)cc2)NC(=O)[C@@H](NC(=O)[C@@H](Cc2ccccc2)NC(=O)CNC(CO)(CO)CO)CSSC[C@@H](C(=O)N[C@H](C(N)=O)[C@@H](C)O)NC1=O [BIM-23182, (HO-CH2)3 -C-NH-CH2 -CO-D-Phe-c[Cys-Tyr-D-Trp-Lys-Abu-Cys]-Thr-NH2]

IC50 (somatostatin receptor): 0.08 nM
Compound: CC[C@@H]1NC(=O)[C@H](CCCCN)NC(=O)[C@@H](Cc2c[nH]c3ccccc23)NC(=O)[C@H](Cc2ccc(O)cc2)NC(=O)[C@@H](NC(=O)[C@@H](Cc2ccccc2)NCC(CO)(CO)CO)CSSC[C@@H](C(=O)N[C@H](C(N)=O)[C@@H](C)O)NC1=O [BIM-23195, (Ho-CH2)3 C-CH2 -D-Phe-C[Cys-Tyr-D-Trp-Lys-Abu-Cys]-Thr-NH2]

IC50 (somatostatin receptor): 0.11 nM
Compound: CC[C@@H]1NC(=O)[C@H](CCCCN)NC(=O)[C@@H](Cc2c[nH]c3ccccc23)NC(=O)[C@H](Cc2ccc(O)cc2)NC(=O)[C@@H](NC(=O)[C@@H](Cc2ccccc2)NC(=O)CCC(=O)NC(CO)(CO)CO)CSSC[C@@H](C(=O)N[C@H](C(N)=O)[C@@H](C)O)NC1=O [BIM-23173, (HO-CH2)3 -C-NH-CO-(CH2)2 -CO-D-Phe-c[Cys-Tyr-D-Trp-Lys-Abu-Cys]-Thr-NH2]

IC50 (somatostatin receptor): 0.09 nM
Compound: CC[C@@H]1NC(=O)[C@H](CCCCN)NC(=O)[C@@H](Cc2c[nH]c3ccccc23)NC(=O)[C@H](Cc2ccc(O)cc2)NC(=O)[C@@H](NC(=O)[C@@H](Cc2ccccc2)NS(=O)(=O)CCNC(CO)(CO)CO)CSSC[C@@H](C(=O)N[C@H](C(N)=O)[C@@H](C)O)NC1=O [BIM-23196]

IC50 (somatostatin receptor): 0.14 nM
Compound: C[C@@H](O)[C@@H]1NC(=O)[C@H](CCCCN)NC(=O)[C@@H](Cc2c[nH]c3ccccc23)NC(=O)[C@H](Cc2ccc(O)cc2)NC(=O)[C@@H](NC(=O)[C@@H](Cc2ccccc2)NCC(CO)(CO)CO)CSSC[C@@H](C(=O)N[C@@H](Cc2ccc3ccccc3c2)C(N)=O)NC1=O [BIM-23201, (HO-CH2)3 -C-CH2 -D-Phe-c[Cys-Tyr-D-Trp-Lys-Thr-Cys]-Nal-NH2] (H-[X2]CY[dW]KTC[2Nal]-NH2; disulfide 2-7)

IC50 (somatostatin receptor): 0.08 nM
Compound: C[C@@H](O)[C@@H]1NC(=O)[C@H](CCCCN)NC(=O)[C@@H](Cc2c[nH]c3ccccc23)NC(=O)[C@H](Cc2ccc(O)cc2)NC(=O)[C@@H](NC(=O)[C@@H](Cc2ccccc2)NC(=O)CN2CCN(CCO)CC2)CSSC[C@@H](C(=O)N[C@@H](Cc2ccc3ccccc3c2)C(N)=O)NC1=O [BIM-23191] (X4-[dF]CY[dW]KTC[2Nal]-NH2; disulfide 2-7)

IC50 (somatostatin receptor): 0.12 nM
Compound: C[C@@H](O)[C@@H]1NC(=O)[C@H](CCCCN)NC(=O)[C@@H](Cc2c[nH]c3ccccc23)NC(=O)[C@H](Cc2ccc(O)cc2)NC(=O)[C@@H](NC(=O)[C@@H](Cc2ccccc2)NC(=O)CNC(CO)(CO)CO)CSSC[C@@H](C(=O)N[C@@H](Cc2ccc3ccccc3c2)C(N)=O)NC1=O [BIM-23179, (HO-CH2)3 -C-NH-CH2 -CO-D-Phe-c[Cys-Tyr-D-Trp-Lys-Thr-Cys]-Nal-NH2] (H-[X3][dF]CY[dW]KTC[2Nal]-NH2; disulfide 3-8)
Inhibition of stimulated growth hormone release (percentile control) ([2]; 2 Hours): 92.79 percentile control
Inhibition of stimulated growth hormone release (percentile control) ([2]; 4 Hours): 63.85 percentile control
Inhibition of stimulated growth hormone release (percentile control) ([2]; 6 Hours): 67.78 percentile control
Inhibition of stimulated growth hormone release (percentile control) ([2]; 8 Hours): 68.26 percentile control

IC50 (somatostatin receptor): 0.33 nM
Compound: CC(C)[C@@H]1NC(=O)[C@H](CCCCN)NC(=O)[C@@H](Cc2c[nH]c3ccccc23)NC(=O)[C@H](Cc2ccc(O)cc2)NC(=O)[C@@H](NC(=O)[C@@H](Cc2ccc3ccccc3c2)NC(=O)CCC(=O)NC(CO)(CO)CO)CSSC[C@@H](C(=O)N[C@H](C(N)=O)[C@@H](C)O)NC1=O [BIM-23158, (HO-CH2)3 -C-NH-CO-(CH2)2 -CO-D-Nal-c[Cys-Tyr-D-Trp-Lys-Val-Cys]-Thr-NH2]

Source: patent publication US5552520A, “Therapeutic peptide derivatives” (Biomeasure, Inc., priority 1994, dated 1996)
